This is an account of results in the OligoGym collection.

For data set [1], the target named is TNFRSF1A. The conditions noted are these: ASO.
Data set [2] concerns the target TFRC. The note with it: ASO.

These antisense oligonucleotides have a phosphorothioate backbone; sugars and methylation of C are not fully specified.
Also: test concentration or dose not given here.

AAAGGCAAAGACCAAAGA returned a remaining target (mRNA or protein) (fraction of control) in data set [1] of 0.69. As to AAAGGCTCAGGGACGAAC, in data set [1], the remaining target (mRNA or protein) (fraction of control) amounted to 0.58. ACAAAACAAAACAAAACA: the remaining target (mRNA or protein) (fraction of control) in data set [1] was found to be 0.73. Regarding ACAGTTGAGGGTTGAGAC, the remaining target (mRNA or protein) (fraction of control) in data set [1] was determined as 0.7.

Regarding ACGGTCCCATTGAGGCAG, in data set [1], the remaining target (mRNA or protein) (fraction of control) was 0.66. In data set [1], ACGGTGTTCTGTTTCTCC came in with a remaining target (mRNA or protein) (fraction of control) of 0.93.

In turn, ACTGTGGTGCCTGAGTCC displayed a remaining target (mRNA or protein) (fraction of control) in data set [1] of 0.69. On to AGACTCGGGCATAGAGAT, for which the remaining target (mRNA or protein) (fraction of control) in data set [1] was not below 1. Sequence AGCCGCTCTCACACTCCC showed a remaining target (mRNA or protein) (fraction of control) in data set [1] of 0.64. AGCGGCAGCAGCAGGTCA registered a remaining target (mRNA or protein) (fraction of control) in data set [1] not below 1.

As for AGCTGAGGCAGTGTCTGA, in data set [1], the remaining target (mRNA or protein) (fraction of control) amounted to 0.73. Still for that read-out and setting: then AGCTGGAGGTGAAGGTGG, with not below 1; and AGGAGGGATAAAAGGCAA, with 0.78. Sequence AGGCAGTGTCTGAGGTGG gave a remaining target (mRNA or protein) (fraction of control) in data set [1] not below 1.

AGGCCCCATTGTTCCGTG: the remaining target (mRNA or protein) (fraction of control) in data set [1] is not below 1. With AGGCTCTGTGGCTTGTGG, in data set [1], the remaining target (mRNA or protein) (fraction of control) was found to be 0.53. In data set [1], AGGGCAGTGTGGCAGCGG registered a remaining target (mRNA or protein) (fraction of control) of 0.47. In data set [1], AGGTGGTTTTCTGAAGCG registered a remaining target (mRNA or protein) (fraction of control) not below 1.

With AGTAGGTTCCTTTGTGGC, in data set [1], the remaining target (mRNA or protein) (fraction of control) is 0.54. Turning to ATAGCGTCCCTCATCCTC, in data set [1], the remaining target (mRNA or protein) (fraction of control) stood at 0.66. As for ATCCTCGCAAACCACCCA, the remaining target (mRNA or protein) (fraction of control) in data set [1] was found to be 0.71.

Consider ATCTGAGAAGACTGGGCG, for which, in data set [1], the remaining target (mRNA or protein) (fraction of control) is not below 1. In data set [1], ATTATTTTGAGGGTGGAT showed a remaining target (mRNA or protein) (fraction of control) not below 1.

Sequence CAAAGACCAAAGAAAATG returned a remaining target (mRNA or protein) (fraction of control) in data set [1] of 0.71. Still for that read-out and setting: then CAATGAAGAGGAGGGATA, with 0.79. Consider CACCAGCGGCAGCAGCAG, for which the remaining target (mRNA or protein) (fraction of control) in data set [1] is 0.79.

In turn, CACCTGACCCATTTCCTT displayed a remaining target (mRNA or protein) (fraction of control) in data set [1] of 0.54. On the same count and under the same terms, under CAGGAGCACCAGCGGCAG stands 0.54; under CAGTCCGTATCCTGCCCC, 0.74.

In the case of CATTTCCTTTCGGCATTT, in data set [1], the remaining target (mRNA or protein) (fraction of control) is 0.87. The same measure, in the same setting: then CATTTGGGCTCAGGGCAG, with 0.91. On to CCATTGAGGCAGAGGCTG, for which the remaining target (mRNA or protein) (fraction of control) in data set [1] was determined as 0.52. The same measure, in the same setting: under CCGCCTCCAGGTCGCCAG stands not below 1; under CCGTTGGTAGCGATACAT, 0.7; under CGCAAACCACCCACTCAG, 0.49. As to CGCAAAGTTGGGACAGTC, in data set [1], the remaining target (mRNA or protein) (fraction of control) was 0.7. As for CTACAGGAGACACACTCG, in data set [1], the remaining target (mRNA or protein) (fraction of control) came to 0.72. As for CTCAGGGACGAACCAGGG, the remaining target (mRNA or protein) (fraction of control) in data set [1] was determined as 0.97. In data set [1], CTCAGGGCAGTGTGGCAG returned a remaining target (mRNA or protein) (fraction of control) of 0.39. CTGTCCTCCCACTTCTGA had a remaining target (mRNA or protein) (fraction of control) in data set [1] of 0.84. Consider CTTACAGTTACTACAGGA, for which the remaining target (mRNA or protein) (fraction of control) in data set [1] worked out at 0.79. For CTTAGTAGTAGTTCCTTC, the remaining target (mRNA or protein) (fraction of control) in data set [1] amounted to 0.85. GAAGCCTGGAGTGGGACT registered a remaining target (mRNA or protein) (fraction of control) in data set [1] of 0.52. On the same count and under the same terms, under GACCCATTTCCTTTCGGC stands 0.74; under GCAGAGGGCACAGGAGTG, 0.76. Take GCAGCAGCAGGTCAGGCA: in data set [1], the remaining target (mRNA or protein) (fraction of control) was found to be 0.63.

In data set [1], GCAGCCCAGCAGGTCCAT showed a remaining target (mRNA or protein) (fraction of control) of 0.68. Sequence GCAGGTCAGGCACGGTGG gave a remaining target (mRNA or protein) (fraction of control) in data set [1] of 0.84.

GCAGTGTGGCAGCGGCAG came in with a remaining target (mRNA or protein) (fraction of control) in data set [1] of 0.47. In data set [1], GCCAAGTTTCTATTAGTG returned a remaining target (mRNA or protein) (fraction of control) of 0.9.

Take GCCTGGACAGTCATTGTA: in data set [1], the remaining target (mRNA or protein) (fraction of control) was not below 1. As to GCTCCTGCTTGCCCCTGC, the remaining target (mRNA or protein) (fraction of control) in data set [1] was determined as 0.57. The same measure, in the same setting: under GCTTGTCCAGGCAGAGGG stands 0.82; under GCTTTTCTTACAGTTACT, 0.9; under GGACTGAAGCCCAGGGTG, 0.88.

GGTACTGGTTCTTCCTGC returned a remaining target (mRNA or protein) (fraction of control) in data set [1] of 0.86. For GGTGACAGTTGAGGGTTG, in data set [1], the remaining target (mRNA or protein) (fraction of control) amounted to 0.92.

In turn, GGTTGAGACTCGGGCATA registered a remaining target (mRNA or protein) (fraction of control) in data set [1] of 0.6. Take GGTTTTCTGAAGCGGTGA: the remaining target (mRNA or protein) (fraction of control) in data set [1] was found to be 0.83.

With GTCAGGCACGGTGGAGAG, the remaining target (mRNA or protein) (fraction of control) in data set [1] is not below 1. Consider GTCCAGGCAGAGGGCACA, for which the remaining target (mRNA or protein) (fraction of control) in data set [1] came to 0.79. In data set [1], GTCTGAGGTGGTTTTCTG gave a remaining target (mRNA or protein) (fraction of control) of 0.66.

For the sequence GTGCCACCTCTCTGCGGG, the remaining target (mRNA or protein) (fraction of control) in data set [1] was not below 1.

In the case of GTGGAACTGGGCACGGGA, the remaining target (mRNA or protein) (fraction of control) in data set [1] was found to be 0.96. On the same count and under the same terms, then GTTAGCACCAAGTAGGCG, with 0.89. With GTTCCTTTGTGGCACTTG, in data set [1], the remaining target (mRNA or protein) (fraction of control) is 0.88.

On to TAACATTCTCAATCTGGG, for which, in data set [1], the remaining target (mRNA or protein) (fraction of control) is not below 1. Same read-out and setting: under TATATTCCCACCAACAGC stands 0.75; under TCCAGGCTTTTCTTACAG, not below 1.

In the case of TCCAGGTGTGTAAGGGTC, the remaining target (mRNA or protein) (fraction of control) in data set [2] is not below 1.

In data set [1], TCCCCTCCTCTCTGCTTT gave a remaining target (mRNA or protein) (fraction of control) of 0.95. On to TGGGCAAGTTTCAATAGG, for which the remaining target (mRNA or protein) (fraction of control) in data set [2] was not below 1. As for TGGTGCTGGTGAAGTCTG, the remaining target (mRNA or protein) (fraction of control) in data set [2] is not below 1. Take TTAACAACAACAGGAAAG: the remaining target (mRNA or protein) (fraction of control) in data set [2] is not below 1. TTAATAACTCCAAAGATG showed a remaining target (mRNA or protein) (fraction of control) in data set [2] not below 1. Sequence TTACAACCTTCAGCAGAG came in with a remaining target (mRNA or protein) (fraction of control) in data set [2] not below 1.

In data set [2], TTACCCACCCAATGCTTA registered a remaining target (mRNA or protein) (fraction of control) of 0.89. As for TTCTCCACCAAACAAGTT, the remaining target (mRNA or protein) (fraction of control) in data set [2] is not below 1. Take TTCTTTCAGGAATGAGGA: the remaining target (mRNA or protein) (fraction of control) in data set [2] was 0.96.

TTGGCTTCTGGTCCCCTC displayed a remaining target (mRNA or protein) (fraction of control) in data set [2] of 0.38.

In data set [2], TTGGTTTTGTGACATTGG gave a remaining target (mRNA or protein) (fraction of control) of 0.92.

In data set [2], TTTAACATCAGGTTTTGT came in with a remaining target (mRNA or protein) (fraction of control) not below 1. TTTAAGTCAAAAGGTCAA displayed a remaining target (mRNA or protein) (fraction of control) in data set [2] not below 1. On the same count and under the same terms, then TTTAGCATCAAATGAAGT, with not below 1; and TTTGGCTGACGGCTGTTT, with 0.39.
